In ChEMBL document CHEMBL5465560, “Selectivity Literature for EUbOPEN Chemogenomic Library” (2024) one finds % of control and % binding data, which are given here for eight molecules.

The target in experiment [1] is Mitogen-activated protein kinase 9 (Homo sapiens, UniProt P45984). Put plainly: Selectivity interaction (KinomeScan (DiscoverX)) EUB0001619a MAPK9. The conditions noted are these: at 1 µM.
In experiment [2] the target is Tyrosine-protein kinase Fgr (Homo sapiens) (UniProt P09769). Conditions: at 10 µM.
Tyrosine-protein kinase Fgr (Homo sapiens), sequence (P09769 2-529 limits assumed): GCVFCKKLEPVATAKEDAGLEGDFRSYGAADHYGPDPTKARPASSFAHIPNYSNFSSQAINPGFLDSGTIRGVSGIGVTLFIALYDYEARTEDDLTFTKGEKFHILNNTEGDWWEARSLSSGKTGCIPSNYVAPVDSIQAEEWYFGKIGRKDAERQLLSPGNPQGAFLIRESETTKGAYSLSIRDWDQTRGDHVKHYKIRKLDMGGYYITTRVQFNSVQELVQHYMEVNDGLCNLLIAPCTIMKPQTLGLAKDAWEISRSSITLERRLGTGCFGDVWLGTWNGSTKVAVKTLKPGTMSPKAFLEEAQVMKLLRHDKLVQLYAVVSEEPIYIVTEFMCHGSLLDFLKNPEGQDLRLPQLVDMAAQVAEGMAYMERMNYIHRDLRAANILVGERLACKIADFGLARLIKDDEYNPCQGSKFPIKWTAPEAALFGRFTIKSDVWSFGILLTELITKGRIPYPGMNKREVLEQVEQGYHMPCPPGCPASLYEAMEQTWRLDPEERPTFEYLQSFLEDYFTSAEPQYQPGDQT
The target of experiment [3] is Ephrin type-A receptor 5 (Homo sapiens) (UniProt P54756). Put plainly: Selectivity interaction (KinomeScan (DiscoverX)) EUB0000045b EPHA5.
Ephrin type-A receptor 5 (Homo sapiens), sequence (P54756 whole entry): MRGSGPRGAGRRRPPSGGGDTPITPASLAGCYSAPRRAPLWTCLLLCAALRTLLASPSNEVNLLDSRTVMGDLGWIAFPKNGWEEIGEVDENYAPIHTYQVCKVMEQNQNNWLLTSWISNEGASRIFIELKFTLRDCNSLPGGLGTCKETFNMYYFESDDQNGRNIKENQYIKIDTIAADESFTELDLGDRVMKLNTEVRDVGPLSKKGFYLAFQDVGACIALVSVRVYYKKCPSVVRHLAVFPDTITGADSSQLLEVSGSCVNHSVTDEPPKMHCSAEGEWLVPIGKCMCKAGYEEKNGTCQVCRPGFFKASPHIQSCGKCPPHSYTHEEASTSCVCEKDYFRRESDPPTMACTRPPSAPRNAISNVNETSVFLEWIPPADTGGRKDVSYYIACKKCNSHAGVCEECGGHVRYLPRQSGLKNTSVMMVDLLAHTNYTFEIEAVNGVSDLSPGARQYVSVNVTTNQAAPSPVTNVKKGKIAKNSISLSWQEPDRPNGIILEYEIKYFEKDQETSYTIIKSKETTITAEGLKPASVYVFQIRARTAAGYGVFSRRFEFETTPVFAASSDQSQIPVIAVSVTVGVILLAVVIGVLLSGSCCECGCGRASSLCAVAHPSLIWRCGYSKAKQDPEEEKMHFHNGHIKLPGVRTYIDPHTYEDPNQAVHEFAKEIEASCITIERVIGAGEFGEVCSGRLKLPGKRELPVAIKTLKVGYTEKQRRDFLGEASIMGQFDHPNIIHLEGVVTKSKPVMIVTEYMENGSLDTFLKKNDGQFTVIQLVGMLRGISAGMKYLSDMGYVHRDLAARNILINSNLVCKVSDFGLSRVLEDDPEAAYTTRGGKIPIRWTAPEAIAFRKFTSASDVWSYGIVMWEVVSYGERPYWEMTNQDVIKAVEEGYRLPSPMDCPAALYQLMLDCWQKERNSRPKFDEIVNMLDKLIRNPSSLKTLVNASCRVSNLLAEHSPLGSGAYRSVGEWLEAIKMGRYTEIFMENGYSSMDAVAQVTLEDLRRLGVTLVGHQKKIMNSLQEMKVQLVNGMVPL
The target of experiment [4] is cAMP-dependent protein kinase catalytic subunit beta (Homo sapiens) (UniProt P22694). In words: Selectivity interaction (Ambit KINOMEscan and KiNATiv profiling in Jurkat cells) EUB0000090b PRKACB. Type of experiment: cell-based. Conditions: at 1 µM.
In experiment [5] the target is Serine/threonine-protein kinase Nek6 (Homo sapiens) (UniProt Q9HC98). Put plainly: Selectivity interaction (KinomeScan (DiscoverX)) EUB0001049a NEK6. The conditions noted are these: at 1 µM.
Serine/threonine-protein kinase Nek6 (Homo sapiens), sequence (Q9HC98 whole entry): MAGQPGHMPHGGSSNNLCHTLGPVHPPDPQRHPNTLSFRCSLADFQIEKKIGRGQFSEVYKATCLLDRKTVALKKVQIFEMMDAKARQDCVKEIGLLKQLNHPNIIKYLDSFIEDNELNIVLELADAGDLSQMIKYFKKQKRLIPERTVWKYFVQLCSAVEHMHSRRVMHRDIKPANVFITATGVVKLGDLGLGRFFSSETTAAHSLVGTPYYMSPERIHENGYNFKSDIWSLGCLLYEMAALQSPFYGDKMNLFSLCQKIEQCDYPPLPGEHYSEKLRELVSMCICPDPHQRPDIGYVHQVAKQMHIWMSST
In experiment [6] the target is T1, Homeodomain-interacting protein kinase 4 (Homo sapiens) (UniProt Q8NE63).
T1 sequence (whole entry): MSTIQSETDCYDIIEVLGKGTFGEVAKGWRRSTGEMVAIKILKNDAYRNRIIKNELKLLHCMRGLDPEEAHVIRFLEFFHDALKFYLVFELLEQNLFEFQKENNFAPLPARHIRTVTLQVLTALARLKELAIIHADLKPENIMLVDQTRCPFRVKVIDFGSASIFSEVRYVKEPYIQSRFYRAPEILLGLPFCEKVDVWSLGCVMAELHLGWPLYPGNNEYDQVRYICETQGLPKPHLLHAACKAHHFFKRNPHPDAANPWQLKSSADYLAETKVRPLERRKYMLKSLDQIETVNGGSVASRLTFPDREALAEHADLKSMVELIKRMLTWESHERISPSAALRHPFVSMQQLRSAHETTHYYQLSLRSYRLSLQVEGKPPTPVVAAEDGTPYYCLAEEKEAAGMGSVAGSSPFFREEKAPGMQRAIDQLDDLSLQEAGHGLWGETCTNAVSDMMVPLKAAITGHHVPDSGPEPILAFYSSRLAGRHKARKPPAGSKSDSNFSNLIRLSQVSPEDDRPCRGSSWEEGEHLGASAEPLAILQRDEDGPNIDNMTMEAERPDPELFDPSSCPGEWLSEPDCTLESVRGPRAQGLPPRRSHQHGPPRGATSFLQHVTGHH
In words: Selectivity interaction (KinomeScan (DiscoverX)) EUB0000655a HIPK4. The conditions noted are these: at 10 µM.

Experiment [7] concerns the target T2, Serine/threonine-protein kinase TAO2 (Homo sapiens) (UniProt Q9UL54).
T2 sequence (whole entry): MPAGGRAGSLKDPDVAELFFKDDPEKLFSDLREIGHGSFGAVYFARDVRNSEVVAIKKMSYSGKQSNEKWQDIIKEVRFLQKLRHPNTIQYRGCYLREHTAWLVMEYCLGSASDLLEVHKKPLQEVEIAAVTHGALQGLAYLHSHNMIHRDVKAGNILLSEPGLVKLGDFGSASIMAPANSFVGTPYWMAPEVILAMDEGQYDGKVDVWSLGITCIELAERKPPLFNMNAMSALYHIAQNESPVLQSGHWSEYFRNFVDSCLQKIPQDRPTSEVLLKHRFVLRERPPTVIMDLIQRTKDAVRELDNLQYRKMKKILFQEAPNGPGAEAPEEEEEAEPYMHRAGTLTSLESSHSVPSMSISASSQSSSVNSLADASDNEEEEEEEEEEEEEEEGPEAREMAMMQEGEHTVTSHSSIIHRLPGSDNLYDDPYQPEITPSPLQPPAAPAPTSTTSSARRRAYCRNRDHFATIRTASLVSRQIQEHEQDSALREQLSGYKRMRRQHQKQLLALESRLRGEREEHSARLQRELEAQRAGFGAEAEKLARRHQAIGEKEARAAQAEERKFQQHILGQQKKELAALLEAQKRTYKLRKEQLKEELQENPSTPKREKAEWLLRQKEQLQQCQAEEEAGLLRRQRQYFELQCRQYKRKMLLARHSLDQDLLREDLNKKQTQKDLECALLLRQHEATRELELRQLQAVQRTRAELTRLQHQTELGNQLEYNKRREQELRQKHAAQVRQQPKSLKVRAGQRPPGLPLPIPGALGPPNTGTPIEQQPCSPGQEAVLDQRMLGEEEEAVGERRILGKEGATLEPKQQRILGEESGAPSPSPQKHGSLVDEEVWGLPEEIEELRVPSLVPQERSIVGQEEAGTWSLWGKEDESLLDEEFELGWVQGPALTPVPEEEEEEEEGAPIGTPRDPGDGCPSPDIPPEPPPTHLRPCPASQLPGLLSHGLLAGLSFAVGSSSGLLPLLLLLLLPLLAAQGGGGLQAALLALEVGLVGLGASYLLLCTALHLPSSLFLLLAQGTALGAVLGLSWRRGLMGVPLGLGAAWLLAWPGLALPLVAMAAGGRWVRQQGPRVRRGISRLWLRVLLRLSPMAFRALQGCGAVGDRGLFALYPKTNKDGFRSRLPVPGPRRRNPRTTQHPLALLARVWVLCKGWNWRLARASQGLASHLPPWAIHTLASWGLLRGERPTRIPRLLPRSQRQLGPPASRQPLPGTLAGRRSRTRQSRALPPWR
Put plainly: Selectivity interaction (KinomeScan (DiscoverX)) EUB0001079a TAOK2. The conditions noted are these: at 1 µM.

Experiment [8] has as its target T3, Mitogen-activated protein kinase kinase kinase 3 (Homo sapiens) (UniProt Q99759).
T3 sequence (whole entry): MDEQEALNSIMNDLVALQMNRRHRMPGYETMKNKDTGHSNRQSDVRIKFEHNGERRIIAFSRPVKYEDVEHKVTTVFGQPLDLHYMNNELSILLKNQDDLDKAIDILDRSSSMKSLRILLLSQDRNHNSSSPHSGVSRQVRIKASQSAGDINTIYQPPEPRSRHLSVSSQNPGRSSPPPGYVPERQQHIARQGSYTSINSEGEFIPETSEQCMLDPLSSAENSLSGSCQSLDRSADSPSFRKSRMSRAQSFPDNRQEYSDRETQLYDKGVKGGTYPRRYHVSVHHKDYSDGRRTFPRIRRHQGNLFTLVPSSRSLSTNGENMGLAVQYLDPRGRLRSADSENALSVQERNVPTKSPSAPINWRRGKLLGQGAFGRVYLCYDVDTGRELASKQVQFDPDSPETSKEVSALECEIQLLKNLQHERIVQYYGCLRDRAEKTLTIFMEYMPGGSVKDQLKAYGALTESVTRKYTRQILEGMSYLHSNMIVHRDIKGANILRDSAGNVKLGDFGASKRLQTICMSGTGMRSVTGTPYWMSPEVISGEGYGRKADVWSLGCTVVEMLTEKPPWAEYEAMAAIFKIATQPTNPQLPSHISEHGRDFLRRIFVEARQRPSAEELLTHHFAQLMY
In words: Selectivity interaction (KinomeScan (DiscoverX)) EUB0000229b MAP3K3. The conditions noted are these: at 10 µM.

Mitogen-activated protein kinase 9, sequence (P45984 whole entry, looked up): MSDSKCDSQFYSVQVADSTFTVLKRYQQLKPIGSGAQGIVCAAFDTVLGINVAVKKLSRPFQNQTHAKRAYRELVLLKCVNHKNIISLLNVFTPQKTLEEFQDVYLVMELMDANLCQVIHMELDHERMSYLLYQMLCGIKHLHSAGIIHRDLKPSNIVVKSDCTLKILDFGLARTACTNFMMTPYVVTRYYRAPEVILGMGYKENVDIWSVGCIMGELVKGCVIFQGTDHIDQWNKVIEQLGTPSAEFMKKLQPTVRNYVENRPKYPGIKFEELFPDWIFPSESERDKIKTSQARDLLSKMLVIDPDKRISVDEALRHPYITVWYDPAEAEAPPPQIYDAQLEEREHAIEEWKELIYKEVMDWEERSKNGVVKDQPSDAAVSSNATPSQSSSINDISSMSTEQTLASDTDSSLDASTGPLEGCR

Consider `N#Cc1cccc(-c2c[nH]c3ncnc(N4CCOCC4)c23)c1`, for which the % of control in experiment [1] is 87%.

The molecule `Cc1cc([C@@H](C)Nc2ccccc2C(=O)O)c2nc(N3CCOCC3)cc(=O)n2c1` [AZD-6482] came in with a % of control in experiment [2] of 95%. For `C=CC(=O)Nc1cc(-n2c(=O)ccc3cnc4ccc(-c5ccc(NS(C)(=O)=O)cc5)cc4c32)ccc1C`, the values for the % of control in experiment [3] (at 1 µM) and in experiment [3] (at 10 µM) were 100% and 97%, respectively. Consider `CN(C)C/C=C/C(=O)Nc1ccc(C(=O)N2CCCC(Nc3ncc(Cl)c(-c4c[nH]c5ccccc45)n3)C2)cc1` (centres undefined), for which the % of control in experiment [4] was determined as 90%. Consider `COc1cc(Nc2nc(C)cc(-c3cnn4nc(OC)ccc34)n2)cc(C(F)(F)F)c1`, for which the % of control in experiment [5] worked out at 89%. In turn, `CN(C)CCOc1ccc(-c2nc(-c3ccncc3)c(-c3ccc4c(c3)CC/C4=N\O)[nH]2)cc1` came in with a % of control in experiment [6] of 18%. As to `Nc1cnc(N2CCc3cc(S(=O)(=O)Nc4c(F)cc(Cl)cc4F)cc(N4CCCC4=O)c32)nc1` [TP-020n], in experiment [7], the % of control was 78%.

For the molecule `COc1cc(N(C)c2ccnc3ccc(C(F)(F)F)cc23)cc(OC)c1OC`, in experiment [8], the % binding came out at 89%.
